Consider 10 compounds from ChEMBL document CHEMBL1201862, “PubChem BioAssay data set” (2004).

Among the test systems are SK-OV-3; SR; SW-620; HOP-62; SF-539; CCRF-CEM; TK-10; MDA-MB-231; M14; OVCAR-5; RXF 393; UACC-62; EKVX; K562; RPMI-8226; DU-145; SK-MEL-2; NCI-H226; HL-60; MCF7.
What all share (assay): DTP human tumour cell line panel, 48 h

One may read the GI50 as the concentration at which growth is held to half of that of the control.

Several values for one entry are separate records, joined by “and”; a condition that tells them apart may be missing. Equal values may be shown once.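 All cell lines were grown in 96-well plates and treated with compound for 48 hours. GI50 marks 50% less growth.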 Activity calls are given as the source filed them. No stated cut-off is given here; in the data, active = GI50 up to about 1.1 µM and inactive = higher.

With `Cc1c(NC(=O)Nc2c(Cl)cccc2Cl)c(=O)n(-c2ccccc2)n1C`, the GI50 in the assay on SK-OV-3 is > 100 µM (inactive); in the assay on SR, > 100 µM (inactive); in the assay with SW-620, > 100 µM (inactive); with HOP-62, > 100 µM (inactive); in the assay with SF-539, > 100 µM (inactive); with CCRF-CEM, 46.7 µM (inactive). Besides, the GI50 in the assay with TK-10, with MDA-MB-231, in the assay on M14, with OVCAR-5, in the assay with RXF 393 and with UACC-62 was > 100 µM (inactive) in each case. The GI50 in the assay with EKVX, in the assay on K562, in the assay with RPMI-8226, in the assay on DU-145, in the assay on SK-MEL-2 and with NCI-H226 was > 100 µM (inactive) in each case. The GI50 in the assay with HL-60 and in the assay with MCF7 was > 100 µM (inactive) in each case.

For the compound `O=C(CC(=O)Nc1ccccc1Cl)NNC(c1cc(/N=N/c2ccc(Br)cc2)ccc1O)P(O)O` (stereo unspecified), the GI50 with SK-OV-3 was 3.03 µM (inactive); in the assay on SR, 0.766 µM (active); in the assay with SW-620 it was 0.647 µM (active); in the assay on HOP-62 it was 3.88 µM (inactive); with SF-539, 0.951 µM (active); with CCRF-CEM, 0.451 µM (active). For the same compound, the GI50 was 1.61 µM (inactive) in the assay with TK-10; 3.06 µM (inactive) in the assay on MDA-MB-231; 0.61 µM (active) with M14; 3.61 µM (inactive) with OVCAR-5; 1.34 µM (inactive) with RXF 393; 0.964 µM (active) in the assay with UACC-62. Further, the GI50 in the assay with EKVX is 4.22 µM (inactive); in the assay with K562 it was 2.4 µM (inactive); in the assay with RPMI-8226, 2.84 µM (inactive); in the assay on DU-145, 2.42 µM (inactive); in the assay with SK-MEL-2, > 10 µM (inactive); with NCI-H226, 1.22 µM (inactive). For the same compound, the results for the GI50 in the assay with HL-60 and in the assay with MCF7 were 0.323 µM (active) and 0.791 µM (active), respectively.

On to `COc1cc(I)c2c3c1OC1C34CCN(C)C(C2)C4=CC(I)C1(OC)OC` (stereo unspecified), for which the GI50 in the assay on SK-OV-3 is 24.8 µM (inactive); with SR it was 16.1 µM (inactive); with SW-620 it was 19 µM (inactive); with HOP-62 it was 19.1 µM (inactive); with SF-539 it was 18.1 µM (inactive); in the assay on CCRF-CEM it was 5.36 µM (inactive). For the same compound, the GI50 was 21.3 µM (inactive) in the assay with TK-10; 20.1 µM (inactive) in the assay with MDA-MB-231; 37.4 µM (inactive) in the assay with M14; 24.2 µM (inactive) in the assay on OVCAR-5; 16.3 µM (inactive) in the assay on RXF 393; 19.2 µM (inactive) in the assay on UACC-62. For the same compound, the GI50 with EKVX is 29.6 µM (inactive); in the assay on K562 it was 20.7 µM (inactive); with RPMI-8226, 19.6 µM (inactive); in the assay on DU-145 it was 18.7 µM (inactive); with SK-MEL-2, 16.4 µM (inactive); in the assay on NCI-H226 it was 22.6 µM (inactive). Further, the GI50 in the assay with HL-60 is 17 µM (inactive); in the assay with MCF7 it was 20.7 µM (inactive).

For `O=C(O)c1cc2c(cc1CC(Cc1ccc3c(c1)CCC3)C(=O)O)CCC2` (stereo unspecified), the GI50 with SK-OV-3, in the assay with SR, in the assay with SW-620, in the assay on HOP-62, in the assay with SF-539 and with CCRF-CEM was > 100 µM (inactive) throughout. In addition, the GI50 in the assay with TK-10, with MDA-MB-231, in the assay with M14, with OVCAR-5, in the assay on RXF 393 and with EKVX was > 100 µM (inactive) each time. The GI50 in the assay with RPMI-8226, in the assay on DU-145, in the assay with SK-MEL-2, in the assay on NCI-H226, in the assay with HL-60 and in the assay on MCF7 was > 100 µM (inactive) throughout.

In the case of `O=P1(N(CCCl)CCCl)Oc2ccc(Cl)cc2C(C(Cl)(Cl)Cl)c2cc(Cl)ccc2O1` (stereo unspecified), the GI50 in the assay with SK-OV-3 is 22.5 µM (inactive); in the assay on SR, 3.94 µM (inactive); in the assay on SW-620, 11.2 µM (inactive); in the assay with HOP-62, 11.8 µM (inactive); in the assay on SF-539, 14.8 µM (inactive); in the assay with CCRF-CEM, 5.37 µM (inactive). The GI50 in the assay with TK-10 was 26.2 µM (inactive); in the assay with MDA-MB-231, 18.6 µM (inactive); with M14 it was 18.8 µM (inactive); in the assay with OVCAR-5 it was 32.8 µM (inactive); with RXF 393, 12.7 µM (inactive); in the assay with UACC-62 it was 12.6 µM (inactive). Further, the GI50 is 18.6 µM (inactive) in the assay on EKVX; 3.72 µM (inactive) with K562; 3.77 µM (inactive) in the assay with RPMI-8226; 29.1 µM (inactive) in the assay on DU-145; 18.5 µM (inactive) with SK-MEL-2; 17.8 µM (inactive) in the assay with NCI-H226. Besides, the GI50 with HL-60 is 4.26 µM (inactive); in the assay with MCF7 it was 10.4 µM (inactive).

Take `COc1c2c(cc3c1C(O)N1CC[C@]34[C@H]3O[C@H]3[C@H](OC)C[C@@H]14)OCO2` (stereo partly specified): the GI50 is 24.2 µM (inactive) in the assay on SK-OV-3; 21.9 µM (inactive) in the assay on SR; 54.7 µM (inactive) in the assay with SW-620; 35.8 µM (inactive) with HOP-62; > 100 µM (inactive) in the assay with SF-539; 2.38 µM (inactive) with CCRF-CEM. The GI50 with TK-10 is > 100 µM (inactive); with MDA-MB-231, > 100 µM (inactive); in the assay with M14, 85.3 µM (inactive); in the assay on OVCAR-5 it was > 100 µM (inactive); with RXF 393, 67.5 µM (inactive); with UACC-62, 39.3 µM (inactive). In addition, the GI50 in the assay on EKVX was > 100 µM (inactive); in the assay with K562, 48 µM (inactive); with RPMI-8226, 82 µM (inactive); with DU-145, > 100 µM (inactive); in the assay with SK-MEL-2 it was 26.4 µM (inactive); in the assay on NCI-H226, > 100 µM (inactive). The GI50 is 1.18 µM (inactive) with HL-60 and 35 µM (inactive) with MCF7.

As for `O=c1c(Sc2ncccn2)c(Sc2ncccn2)cnn1CCl`, the GI50 in the assay on SK-OV-3 is 11.1 µM (inactive); in the assay with SR, 2.79 µM (inactive); with SW-620 it was 2.4 µM (inactive); with HOP-62, 1.49 µM (inactive); in the assay with SF-539, 1.52 µM (inactive); in the assay with CCRF-CEM, 0.295 µM (active). The GI50 in the assay with TK-10 was 0.398 µM (active); in the assay on MDA-MB-231, 6.98 µM (inactive); with M14, 2.12 µM (inactive); in the assay on OVCAR-5, 7.21 µM (inactive); with RXF 393 it was 1.5 µM (inactive); in the assay on UACC-62, 5.75 µM (inactive). In addition, the GI50 with EKVX is 2.9 µM (inactive); in the assay on K562, 3.39 µM (inactive); in the assay with RPMI-8226, 1.67 µM (inactive); in the assay on DU-145, 2.64 µM (inactive); in the assay on SK-MEL-2, 2.22 µM (inactive); with NCI-H226, 28.1 µM (inactive). Besides, the figures for the GI50 with HL-60 and in the assay on MCF7 were 2.04 µM (inactive) and 2.88 µM (inactive), respectively.

Turning to `OC(C/C=N/N=C/CC(O)(C(F)(F)Cl)C(F)(F)Cl)(C(F)(F)Cl)C(F)(F)Cl`, the GI50 with SK-OV-3, with SR, with SW-620, in the assay on HOP-62, with SF-539 and with CCRF-CEM was > 10 µM (inactive) throughout. In addition, the GI50 in the assay with TK-10, with MDA-MB-231, in the assay on M14, in the assay on RXF 393, in the assay on UACC-62 and in the assay with EKVX was > 10 µM (inactive) each time. Further, the GI50 with K562, in the assay on RPMI-8226, in the assay with DU-145, in the assay on SK-MEL-2, with NCI-H226 and with HL-60 was > 10 µM (inactive) in each case. Also, in the assay with MCF7, the GI50 is > 10 µM (inactive).

Regarding `CC(=O)OC1CC2C(=O)CC1(C)C2(C)C` (stereo unspecified), the GI50 with SK-OV-3 is > 100 µM (inactive); with SR it was > 100 µM (inactive); with SW-620, > 83.8 µM (inactive); in the assay on HOP-62, > 100 µM (inactive); with SF-539 it was > 100 µM (inactive); in the assay with CCRF-CEM, > 100 µM (inactive). For the same compound, the GI50 in the assay with TK-10, in the assay with MDA-MB-231, with M14, in the assay on OVCAR-5, with RXF 393 and in the assay with UACC-62 was > 100 µM (inactive) in each case. Moreover, the GI50 is > 100 µM (inactive) in the assay on EKVX; > 100 µM (inactive) and > 80.4 µM (inactive) with K562; > 100 µM (inactive) in the assay on RPMI-8226; > 100 µM (inactive) in the assay with DU-145; > 100 µM (inactive) in the assay on SK-MEL-2; > 100 µM (inactive) in the assay with NCI-H226. Also, the GI50 in the assay with HL-60 and with MCF7 was > 100 µM (inactive) each time.

As to `CC(=O)OC1/C(=C/c2ccc([N+](=O)[O-])cc2)C[C@H]2[C@@H]3CC=C4C[C@@H](OC(C)=O)CC[C@]4(C)[C@H]3CC[C@]12C` (stereo partly specified), the GI50 with SK-OV-3 was 41.4 µM (inactive); in the assay on SR, 5.13 µM (inactive); with SW-620 it was > 100 µM (inactive); with HOP-62, 34.7 µM (inactive); in the assay on SF-539, 59.6 µM (inactive); in the assay with CCRF-CEM, > 40.6 µM (inactive). Moreover, the GI50 with TK-10 was 29.6 µM (inactive); in the assay with MDA-MB-231, 58.3 µM (inactive); in the assay with M14 it was > 100 µM (inactive); in the assay on OVCAR-5, > 100 µM (inactive); with RXF 393, 20 µM (inactive); with UACC-62, > 100 µM (inactive). Further, the GI50 with EKVX is > 85.7 µM (inactive); in the assay with RPMI-8226, > 71.3 µM (inactive); in the assay with DU-145, > 100 µM (inactive); in the assay with SK-MEL-2, > 61.5 µM (inactive); in the assay on NCI-H226, 4.63 µM (inactive); in the assay with HL-60, 2.61 µM (inactive). The GI50 in the assay with MCF7 is > 100 µM (inactive).
